This is an account of results in patent US20060223837A1 (priority 2005, published 2006).

Test [1] relates to cough. As to conditions: capsaicin and citric acid induced cough, guinea pig; cited from earlier work.
In test [2] the test system is chronic arthritis. To be noted: tail vein model; cited from earlier work.
In test [3] the test system is CFA-induced mechanical hyperalgesia. To be noted: literature; cited from earlier work.
Test [4] has as its system neuropathic pain. To be noted: chronic constriction injury rodent neuropathic pain model; cited from earlier work.
The target of test [5] is T1, human VR1 (Homo sapiens, UniProt Q8NER1).
T1 construct: expressed in transfected cells; host or cells: HEK293
Nature of the test: Human VR1 functional assay (FLIPR intracellular Ca2+). The class given is cell-based. To be noted: for IC50: antagonism of capsaicin-induced Ca2+ increase, read-out: h IC50; for inhibition at 1 µM / inhibition at 5 µM / inhibition at 10 µM / h % I (10 μM) / h % I (5 μM): inhibition of capsaicin response; for inhibition at 1 µM: read-out: h % I (1 μM); for inhibition at 5 µM: read-out: h % I (5 μM); for Emax at 6 µM / Emax at 12 µM / % Response Relative to EC80 of Capsaicin (12 μM): agonist response; for Emax at 6 µM: read-out: % Response Relative to EC80 of Capsaicin (6 μM); for inhibition at 10 µM: read-out: h % I (10 μM); for Emax at 12 µM: read-out: % Response Relative to EC80 of Capsaicin (12 μM). A digest of the protocol:
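Read-out was Ca2+-dye fluorescence by FLIPR: compounds at varying concentrations were added to dye-loaded human VR1 HEK293 cells and monitored 5 min before capsaicin addition ([…], approx. EC80). Dose-response data, averaged over four wells, gave EC50 or IC50.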

Test [6] concerns the target T1, human VR1. Nature of the test: Human VR1 [3H]RTX binding assay. As to conditions: for Ki: [3H]RTX binding, HEK293 membranes; for inhibition at 1 µM / h Binding % I (1 μM): inhibition of [3H]RTX binding at 1 μM; for inhibition at 1 µM: read-out: h Binding % I (1 μM). The essentials: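 Inhibition of [3H]resiniferatoxin binding measured on HEK293-hVR1 membranes over 60 min at 37 C, pH 7.4 HEPES buffer containing BSA. Pellet radioactivity counted; 200 nM cold RTX gave nonspecific binding. % inhibition computed and Ki derived from duplicate measurements.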

In test [7] the test system is dextran sulfate induced colitis. As to conditions: animal model; cited from earlier work.

SMILES strings stand for the structures. Structures can show the parent of a compound that is named as a salt.

T1 sequence (Q8NER1 whole entry): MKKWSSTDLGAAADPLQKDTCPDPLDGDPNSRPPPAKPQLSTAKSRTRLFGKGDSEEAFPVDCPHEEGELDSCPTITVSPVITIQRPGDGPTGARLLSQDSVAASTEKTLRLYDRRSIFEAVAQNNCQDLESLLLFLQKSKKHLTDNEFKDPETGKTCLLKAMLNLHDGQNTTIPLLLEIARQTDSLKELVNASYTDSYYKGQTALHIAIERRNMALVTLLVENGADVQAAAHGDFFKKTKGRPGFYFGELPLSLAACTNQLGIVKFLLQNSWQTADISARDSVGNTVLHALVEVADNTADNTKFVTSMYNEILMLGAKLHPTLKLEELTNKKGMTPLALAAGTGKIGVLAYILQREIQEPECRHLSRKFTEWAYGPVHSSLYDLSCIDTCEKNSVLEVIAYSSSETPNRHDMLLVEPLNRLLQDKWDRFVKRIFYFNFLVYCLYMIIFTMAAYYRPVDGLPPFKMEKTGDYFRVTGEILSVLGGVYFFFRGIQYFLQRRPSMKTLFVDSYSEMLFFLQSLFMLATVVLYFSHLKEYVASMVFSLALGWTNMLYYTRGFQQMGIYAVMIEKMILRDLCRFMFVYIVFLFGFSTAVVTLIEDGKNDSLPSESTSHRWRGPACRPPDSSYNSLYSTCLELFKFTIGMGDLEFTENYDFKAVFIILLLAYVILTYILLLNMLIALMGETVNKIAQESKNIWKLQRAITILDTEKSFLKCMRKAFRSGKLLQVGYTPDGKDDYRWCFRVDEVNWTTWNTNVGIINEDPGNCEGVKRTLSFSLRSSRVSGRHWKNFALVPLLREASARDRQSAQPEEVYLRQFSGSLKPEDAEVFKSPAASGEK

Take `C=C(C)[C@]12C[C@@H](C)[C@@]34O[C@](Cc5ccccc5)(O[C@@H]1[C@@H]3C=C(COC(=O)Cc1cc(I)c(O)c(OC)c1)C[C@]1(O)C(=O)C(C)=C[C@@H]41)O2` [iodo-resiniferatoxin]: the antitussive action entry in test [1] is reported as “antitussive action”.
As for `O=C(O)Cc1ccccc1Nc1c(Cl)cccc1Cl` [diclofenac], the pain relief result in test [2] is given as “partially effective”. The effect on hyperalgesia entry in test [3] is on record as “reversed the hyperalgesic effect of zymosan”.
As for `CN1CC[C@]23c4c5ccc(O)c4O[C@H]2[C@@H](O)C=C[C@H]3[C@H]1C5` [morphine], in test [2], the pain relief entry is recorded as “fully relieved pain”.
Take `COc1cccc(C2(O)CCCCC2CN(C)C)c1` (centres unmarked) [tramadol]: in test [2], the pain relief entry is given as “fully relieved pain”.
Consider `CC(C)(C)c1ccc(NC(=O)N2CCN(c3ncccc3Cl)CC2)cc1` [BCTC], for which the “effect on mechanical hyperalgesia and tactile allodynia” value in test [4] was “reduced mechanical hyperalgesia and tactile allodynia”. Moreover, the effect on hyperalgesia result in test [3] is given as “reduced hyperalgesia”.
Broadly, the IC50 is the concentration that gives 50% inhibition. For orientation: Ki means the dissociation constant of the complex between target and ligand, obtained from inhibition or displacement. Consider `CC(C)(C)c1ccc(CCC(=O)Nc2ccc(-n3cnc(Cl)c3Cl)c(C(F)(F)F)c2)cc1` [Cpd 212, 3-(4-tert-Butyl-phenyl)-N-[4-(4,5-dichloro-imidazol-1-yl)-3-trifluoromethyl-phenyl]-propionamide], for which, in test [5], the IC50 amounted to 62.7 nM, the inhibition at 1 µM was 101% and the inhibition at 5 µM stood at 100%. Moreover, affinity in test [6] was put at a Ki of 5.9 nM.
As to `Nc1ccc(O)c(C(=O)O)c1` [5-ASA], in test [7], the protection against colitis entry is reported as “protects against dextran sulfate induced colitis”.
As for `CC(C)(C)c1ccc(CCC(=O)Nc2ccc(-c3ccc(CO)cc3)c(CO)c2)cc1` [Cpd 96], in test [5], the Emax at 6 µM stood at 65% and the inhibition at 1 µM came to 91%. This compound had a Ki in test [6] of 77 nM.
As for `Cc1cc(NC(=O)CCc2ccc(C(C)(C)C)cc2)ccc1-c1cccc(O)c1` [Cpd 59, 3-(4-tert-butyl-phenyl)-N-(3′-hydroxy-2-methyl-biphenyl-4-yl)-propionamide], in test [5], the IC50 came out at 490 nM and the inhibition at 10 µM is 101%. In test [6], affinity was put at a Ki of 10.7 nM and the inhibition at 1 µM was 103%.
On to `CC(C)(C)c1ccc(CCC(=O)Nc2ccccc2-c2cccc(O)c2)cc1` [Cpd 4], for which the “h % I (10 μM)” value in test [5] is reported as 35%. For the same compound, the “h Binding % I (1 μM)” value in test [6] worked out at 1%.
Consider `CC(=O)Nc1cccc(-c2ccc(NC(=O)CCc3ccc(C(C)(C)C)cc3)cc2C)c1` [Cpd 55], for which the Emax at 12 µM in test [5] turned out to be 69%. In addition, in test [6], the Ki was found to be 184 nM and the inhibition at 1 µM was determined as 66%.
In the case of `CC(C)(C)c1ccc(CCC(=O)Nc2ccc(-c3cccnc3)nc2)cc1` [Cpd 136], in test [5], the Emax at 12 µM is 78%. Also, in test [6], the inhibition constant Ki was 103 nM and the inhibition at 1 µM is 84%.
Take `CC(C)(C)c1ccc(CCC(=O)Nc2ccccc2-c2cccc(CO)c2)cc1` [Cpd 19]: the “h % I (10 μM)” value in test [5] amounted to 20%. The “h Binding % I (1 μM)” value in test [6] is 1%.
For `CC(C)(C)c1ccc(CCC(=O)Nc2cccc(-c3ccc(O)cc3)c2)cc1` [Cpd 2], in that order: 41% and 11%.
`O=C(CCc1ccc(C(F)(F)F)cc1)Nc1ccc(-c2ccncc2)c2ccccc12` [Cpd 157]: the “h % I (5 μM)” value in test [5] turned out to be 12%. Further, the “h Binding % I (1 μM)” value in test [6] is recorded as 1%.
On to `CC(C)(C)c1ccc(CCC(=O)Nc2ccc(-c3ncccc3O)cc2)cc1` [Cpd 115], for which the “% Response Relative to EC80 of Capsaicin (12 μM)” value in test [5] is reported as 58%. Besides, in test [6], the “h Binding % I (1 μM)” value came to 34%.
On to `O=C(CCc1ccc(C(F)(F)F)cc1)Nc1cnc(-c2ccc(O)cc2)c(C(F)(F)F)c1` [Cpd 221], for which, in test [5], the concentration for half-maximal inhibition (IC50) stood at 127 nM and the inhibition at 5 µM was 100%. The same compound had a Ki in test [6] of 57.8 nM.
On to `CC(C)(C)c1ccc(CCC(=O)Nc2ccc(-c3ccncc3)c(CO)c2)cc1` [Cpd 171], for which, in test [5], the Emax at 6 µM was 119% and the inhibition at 1 µM worked out at 60%. In test [6], this compound registered an inhibitory constant (Ki) of 292 nM.
With `COc1ccc2c(c1)c(CC(=O)O)c(C)n2C(=O)c1ccc(Cl)cc1` [indomethacin], in test [2], the pain relief entry was “partially effective”.
`Cn1ccnc1-c1ccc(NC(=O)CCc2ccc(C(C)(C)C)cc2)cc1` [Cpd 189]: the “h % I (5 μM)” value in test [5] is 63%. For the same compound, in test [6], the “h Binding % I (1 μM)” value came out at 4%.
In the case of `O=C(/C=C/c1ccc(S(=O)(=O)C(F)(F)F)cc1)Nc1ccc(-n2cnc(Cl)c2Cl)c(C(F)(F)F)c1` [Cpd 217], in test [5], the 50% inhibitory concentration (IC50) is 87 nM and the inhibition at 1 µM was 101%. The same compound displayed an inhibition constant Ki in test [6] of 47.7 nM.
`CC(=O)c1cccc(-c2ccc(NC(=O)CCc3ccc(C(C)(C)C)cc3)cc2)c1` [Cpd 13]: in test [5], the “h % I (10 μM)” value stood at 35%. Further, the “h Binding % I (1 μM)” value in test [6] was 35%.
Take `CC(C)(C)c1ccc(CCC(=O)Nc2ccc(-c3cccc(C(N)=O)c3)c(C(=O)O)c2)cc1` [Cpd 72]: in test [5], the “h % I (10 μM)” value was 11%. Moreover, the “h Binding % I (1 μM)” value in test [6] is given as 1%.
For `Cc1cc(NC(=O)CCc2ccc(C(C)(C)C)cc2)cnc1-c1cccc([N+](=O)[O-])c1` [Cpd 260], in test [5], the inhibition at 5 µM was 93%. This compound had a Ki in test [6] of 391 nM.
Take `CC(C)(C)c1ccc(CCC(=O)Nc2ccc(-c3ccccc3O)c(F)c2)cc1` [Cpd 100]: in test [5], the Emax at 6 µM came to 96% and the inhibition at 1 µM turned out to be 87%. Moreover, in test [6], the inhibitory constant (Ki) was 68 nM.
As to `O=C(CCc1ccc(C(F)(F)F)cc1)Nc1ccc(-c2ccc(O)cc2)c(C(F)(F)F)c1` [Cpd 229], in test [5], the 50% inhibitory concentration (IC50) amounted to 195 nM and the inhibition at 5 µM came to 100%. This compound displayed a Ki in test [6] of 99.2 nM.
Take `CC(C)(C)c1ccc(CCC(=O)Nc2ccc(-c3cccc(O)c3)c3ccccc23)cc1` [Cpd 82]: the “h % I (5 μM)” value in test [5] came out at 39%. Also, in test [6], the “h Binding % I (1 μM)” value was 28%.
Consider `CC(C)(C)c1ccc(CCC(=O)Nc2ccc(-c3ccncc3)c(F)c2)cc1` [Cpd 182], for which, in test [5], the Emax at 6 µM is 97% and the inhibition at 1 µM was 80%. The Ki in test [6] was found to be 55 nM.
For `CC(=O)Nc1cccc(-c2ncc(NC(=O)CCc3ccc(C(C)(C)C)cc3)cc2C)c1` [Cpd 216], in test [5], the IC50 amounted to 76.2 nM and the inhibition at 5 µM was 99%. In test [6], this compound had an inhibition constant (Ki) of 70.4 nM.
`O=C(CCc1ccccc1)Nc1ccc(-c2ccncc2)c(C(F)(F)F)c1` [Cpd 252]: in test [5], the IC50 was 896 nM and the inhibition at 5 µM is 100%. This compound also displayed a Ki in test [6] of 5350 nM.
For `CC(C)(C)c1ccc(CCC(=O)Nc2ccc(-c3ccc(CO)cc3)cc2)cc1` [Cpd 24], in test [5], the Emax at 12 µM turned out to be 68% and the inhibition at 10 µM was 32%. In test [6], the affinity, expressed as Ki, was 84 nM and the inhibition at 1 µM was determined as 87%.
For `O=C(CCc1ccc(C(F)(F)F)cc1)Nc1ccc(-c2ccncc2)cc1` [Cpd 143], in test [5], the “% Response Relative to EC80 of Capsaicin (12 μM)” value is reported as 111%. The “h Binding % I (1 μM)” value in test [6] was found to be 44%.
Regarding `CC(=O)Nc1cccc(-c2ccc(NC(=O)CCc3ccc(C(C)(C)C)cc3)c(CO)c2)c1` [Cpd 70], in test [5], the “h % I (10 μM)” value was found to be 7%. In addition, in test [6], the “h Binding % I (1 μM)” value was 1%.
As for `CC(C)(C)c1ccc(CCC(=O)Nc2cccc(-c3ccccn3)c2)cc1` [Cpd 109, 3-(4-tert-butyl-phenyl)-N-(3-pyridin-2-yl-phenyl)-propionamide hydrochloride], in test [5], the Emax at 12 µM is 47%. Besides, in test [6], the inhibition at 1 µM was found to be 1%.
Turning to `O=C(CCc1ccc(C(F)(F)F)cc1)Nc1ccc(-n2cnc(Cl)c2)c(C(F)(F)F)c1` [Cpd 227, N-[4-(4-Chloro-imidazol-1-yl)-3-trifluoromethyl-phenyl]-3-(4-trifluoromethyl-phenyl)-propionamide], in test [5], the IC50 is 168 nM and the inhibition at 1 µM was 100%. In test [6], this compound had an inhibition constant Ki of 90.8 nM.
